In patent US12209102B2, “Heterocyclic compounds and uses thereof” (Kumquat Biosciences Inc., priority 2022, dated 2025) one finds IC50 data, which are given here for twelve compounds.

For one experiment, the system named is A549 cells. Kind of experiment: Ras cellular assay, growth of cells with K-Ras G12S mutation (CellTiter-Glo). Type of experiment: cell-based. The note with it: Homo sapiens, cell growth, Example 9, G12S mutation, read-out: IC50 against A549 cells. How it is done: For example, this assay can be also used to assess a selective growth inhibition of a mutant Ras protein relative to a wildtype, or relative to a different mutant Ras protein.
A549 (ATCC CCL-185) and LS123 (ATCC CCL-255) cell lines comprise a G12S mutation and can be used to assess Ras cellular signaling in vitro, e.g., in response to the compounds herein. A549 culture medium is prepared with RPMI-1640 and 10% heat-inactivated FBS. LS123 culture medium is prepared with RPMI-1640 and 10% heat-inactivated FBS. A CellTiter-Glo (CTG) luminescent based assay (Promega) is used to assess growth of the cells, as a measurement of the ability of the compounds herein to inhibit Ras signaling in the cells. The cells (e.g., 800 per well) are seeded in their respective culture medium in standard tissue culture-treated 384-well format plates (Falcon #08-772-116) or ultra-low attachment surface 384-well format plates (S-Bio #MS-9384WZ). The day after plating, cells are treated with a dilution series (e.g., a 10 point 3-fold dilution series) of the compounds herein (e.g., approximately 40 μL final volume per well). Cell viability can be monitored (e.g., approximately 6 days later) according to the manufacturer's recommended instructions, where the CellTiter-Glo reagent is added (e.g., approximately 10 μL), vigorously mixed, covered, and placed on a plate shaker (e.g., approximately for 20 min) to ensure sufficient cell lysis prior to assessment of luminescent signal. The IC50 values are determined using the four parameter fit. The resulting IC50 value is a measurement of the ability of the compounds herein to reduce cell growth of Ras-driven cells (e.g., tumor cell lines) in vitro and/or in vivo.

A further experiment concerns the target T1, K-Ras G12S (Homo sapiens, UniProt P01116, G12S).
T1 construct: made in house; host or cells: E. coli BL21 (DE3)
Description: HTRF resonance energy transfer assay, K-Ras G12S / SOS1 interaction. The experiment is classed as biochemical. To be noted: HTRF assay of Example 5; read-out: IC50 against K-Ras G12S. The procedure, abridged: (§1)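 Compounds, tested in duplicate at 10 μM down to 0.01 μM, were read after about 10 min or more by HTRF as the 665/620 nm emission ratio (337 nm excitation) to derive IC50. This ratio reports FRET between an anti-GST-Eu donor on GST-K-Ras (wild-type or mutant) and an anti-6His-XL665 acceptor on His-hSOS1. Buffer: ~5 mM HEPES pH 7.4, 150 mM NaCl, 1 mM DTT, 0.05% BSA, 0.0025% Igepal.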
A general note: TR-FRET usually uses a lanthanide donor and a delayed reading to cut background.

A further experiment has as its target T2, K-Ras G12V (Homo sapiens, UniProt P01116, G12V).
T2 construct: made in house; host or cells: E. coli BL21 (DE3)
Description: HTRF resonance energy transfer assay, K-Ras G12V / SOS1 interaction. Type of experiment: biochemical. To be noted: HTRF assay of Example 5; read-out: IC50 against K-Ras G12V. The procedure, abridged: as §1

A further experiment deals with T3, K-Ras G12D (Homo sapiens, UniProt P01116, G12D).
T3 construct: made in house; host or cells: E. coli BL21 (DE3)
T3 sequence (P01116 1-188 isoform P01116-2 G12D): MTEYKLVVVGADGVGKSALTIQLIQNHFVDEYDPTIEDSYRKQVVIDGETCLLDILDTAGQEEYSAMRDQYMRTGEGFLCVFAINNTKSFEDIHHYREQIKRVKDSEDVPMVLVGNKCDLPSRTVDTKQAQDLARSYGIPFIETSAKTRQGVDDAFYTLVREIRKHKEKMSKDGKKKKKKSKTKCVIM
Description: HTRF resonance energy transfer assay, K-Ras G12D / SOS1 interaction. Type of experiment: biochemical. To be noted: HTRF assay of Example 5; read-out: IC50 against K-Ras G12D. The method in brief: as §1

The next experiment has as its target T4, K-Ras WT (Homo sapiens, UniProt P01116).
T4 construct: made in house; host or cells: E. coli BL21 (DE3)
Description: HTRF resonance energy transfer assay, K-Ras WT / SOS1 interaction. To be noted: HTRF assay of Example 5; read-out: IC50 against K-Ras WT. Type of experiment: biochemical. The method in brief: as §1

The next experiment deals with SW620 cells. Kind of experiment: Ras cellular assay, growth of cells with K-Ras G12V mutation (CellTiter-Glo). To be noted: Homo sapiens, SW-620; cell growth, Example 9, G12V mutation; read-out: IC50 against SW620 cells. Type of experiment: cell-based. The method in brief: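 IC50 values came from a four-parameter fit of CellTiter-Glo viability, read roughly 6 days after dosing with e.g. a 10-point threefold dilution series. G12V-mutant SW620 cells (e.g. 800 per well) had been plated the previous day in RPMI-1640/10% heat-inactivated FBS, on tissue culture-treated or ultra-low attachment plates.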
(ATP-based viability assays read luminescence as a measure of living cells.)

As a reminder, the IC50 is the concentration at which inhibition is half-maximal.

T2 sequence (P01116 1-188 isoform P01116-2 G12V): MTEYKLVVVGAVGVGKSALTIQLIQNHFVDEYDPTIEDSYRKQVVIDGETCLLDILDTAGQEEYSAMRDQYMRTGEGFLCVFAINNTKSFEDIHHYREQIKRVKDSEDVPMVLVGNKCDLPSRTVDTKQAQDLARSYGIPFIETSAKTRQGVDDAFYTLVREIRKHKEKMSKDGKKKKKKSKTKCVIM
T4 sequence (P01116 1-188 isoform P01116-2): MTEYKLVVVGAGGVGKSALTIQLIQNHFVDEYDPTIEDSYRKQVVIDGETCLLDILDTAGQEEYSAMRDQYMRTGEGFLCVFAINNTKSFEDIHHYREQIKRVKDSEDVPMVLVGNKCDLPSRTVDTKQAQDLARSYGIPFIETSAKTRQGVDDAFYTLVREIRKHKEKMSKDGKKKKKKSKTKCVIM
T1 sequence (P01116 1-188 isoform P01116-2 G12S): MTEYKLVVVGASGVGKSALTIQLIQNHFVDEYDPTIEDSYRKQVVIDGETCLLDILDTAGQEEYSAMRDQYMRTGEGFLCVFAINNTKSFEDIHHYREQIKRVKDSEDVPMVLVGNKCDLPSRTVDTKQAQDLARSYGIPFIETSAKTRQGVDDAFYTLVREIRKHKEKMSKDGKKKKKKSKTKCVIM

For the compound `C[C@H]1COc2c(Cl)c(-c3ccc(F)c4sc(N)c(C#N)c34)c(F)c3nc(OC[C@@]45CCCN4C[C@H](F)C5)nc(c23)N1CC(F)F` [Compound 658, 2-amino-4-((5S)-8-chloro-4-(2,2-difluoroethyl)-10-fluoro-2-(((2R,7aS)-2-fluorotetrahydro-1H-pyrrolizin-7a(5H)-yl)methoxy)-5-methyl-5,6-dihydro-4H-[1,4]oxazepino[5,6,7-de]quinazolin-9-yl)-7-fluorobenzo[b]thiophene-3-carbonitrile], in the experiment with A549 cells, the IC50 was below 5000 nM.
Same read-out and setting: then `N#Cc1c(N)sc2c(F)ccc(-c3c(Cl)c4c5c(nc(OC[C@@]67CCCN6C[C@H](F)C7)nc5c3F)N(C3CCCCC(O)C3)CCO4)c12` (stereo partly drawn) [Compound 825, 2-amino-4-(8-chloro-10-fluoro-2-(((2R,7aS)-2-fluorotetrahydro-1H-pyrrolizin-7a(5H)-yl)methoxy)-4-(3-hydroxycycloheptyl)-5,6-dihydro-4H-[1,4]oxazepino[5,6,7-de]quinazolin-9-yl)-7-fluorobenzo[b]thiophene-3-carbonitrile], with below 5000 nM.
Turning to `N#Cc1c(N)sc2c(F)ccc(-c3c(Cl)c4c5c(nc(OC[C@@]67CCCN6C[C@H](F)C7)nc5c3F)N(CC(F)F)CCO4)c12` [Compound 827, 2-amino-4-(8-chloro-4-(2,2-difluoroethyl)-10-fluoro-2-(((2R,7aS)-2-fluorotetrahydro-1H-pyrrolizin-7a(5H)-yl)methoxy)-5,6-dihydro-4H-[1,4]oxazepino[5,6,7-de]quinazolin-9-yl)-7-fluorobenzo[b]thiophene-3-carbonitrile], the IC50 with A549 cells is below 5000 nM.
As to `N#Cc1c(N)sc2c(F)ccc(-c3c(Cl)c4c5c(nc(OC[C@@]67CCCN6C[C@H](F)C7)nc5c3F)N(C3CCOC3)[C@@H](C(F)F)CO4)c12` (stereo partly drawn) [Compound 855, 2-amino-4-((5R)-8-chloro-5-(difluoromethyl)-10-fluoro-2-(((2R,7aS)-2-fluorotetrahydro-1H-pyrrolizin-7a(5H)-yl)methoxy)-4-(tetrahydrofuran-3-yl)-5,6-dihydro-4H-[1,4]oxazepino[5,6,7-de]quinazolin-9-yl)-7-fluorobenzo[b]thiophene-3-carbonitrile], the IC50 in the experiment with A549 cells is below 5000 nM; on K-Ras G12S, below 100 nM; on K-Ras G12V, below 100 nM.
As for `C[C@H](Oc1nc2c3c(c(Cl)c(-c4ccc(F)c5sc(N)c(C#N)c45)c(F)c3n1)OCCN2[C@@H]1CCN(C(=O)C(F)F)C1)[C@@H]1CCCN1C` [Compound 946, 2-amino-4-(8-chloro-4-((R)-1-(2,2-difluoroacetyl)pyrrolidin-3-yl)-10-fluoro-2-((S)-1-((S)-1-methylpyrrolidin-2-yl)ethoxy)-5,6-dihydro-4H-[1,4]oxazepino[5,6,7-de]quinazolin-9-yl)-7-fluorobenzo[b]thiophene-3-carbonitrile], the IC50 at K-Ras G12D was below 100 nM; in the experiment on A549 cells it was below 5000 nM; on K-Ras G12S, below 100 nM; on K-Ras G12V it was below 100 nM; on K-Ras WT, below 100 nM.
Regarding `N#Cc1c(N)sc2c(F)ccc(-c3c(Cl)c4c5c(nc(OC[C@@]67CCCN6C[C@H](F)C7)nc5c3F)N(C3C5CNC3C5)CCO4)c12` (stereo partly drawn) [Compound 991, 4-(4-(2-azabicyclo[2.1.1]hexan-5-yl)-8-chloro-10-fluoro-2-(((2R,7aS)-2-fluorotetrahydro-1H-pyrrolizin-7a(5H)-yl)methoxy)-5,6-dihydro-4H-[1,4]oxazepino[5,6,7-de]quinazolin-9-yl)-2-amino-7-fluorobenzo[b]thiophene-3-carbonitrile], the IC50 was below 100 nM on K-Ras G12D; below 5000 nM with A549 cells; below 100 nM on K-Ras G12S; below 100 nM on K-Ras G12V; below 100 nM at K-Ras WT.
For the compound `N#Cc1c(N)sc2c(F)ccc(-c3c(Cl)c4c5c(nc(OC[C@@]67CCCN6C[C@H](F)C7)nc5c3F)N(C3CC5(C3)CC5(F)F)CCO4)c12` (stereo partly drawn) [Compound 1004, 2-amino-4-(8-chloro-4-(1,1-difluorospiro[2.3]hexan-5-yl)-10-fluoro-2-(((2R,7aS)-2-fluorotetrahydro-1H-pyrrolizin-7a(5H)-yl)methoxy)-5,6-dihydro-4H-[1,4]oxazepino[5,6,7-de]quinazolin-9-yl)-7-fluorobenzo[b]thiophene-3-carbonitrile], the IC50 with A549 cells was below 5000 nM; on K-Ras G12V, below 100 nM; with SW620 cells, below 5000 nM; at K-Ras WT it was below 100 nM.
As to `N#Cc1c(N)sc2c(F)ccc(-c3c(Cl)c4c5c(nc(OC[C@@]67CCCN6C[C@H](F)C7)nc5c3F)NCCO4)c12` [Compound 1087, 2-amino-4-(8-chloro-10-fluoro-2-(((2R,7aS)-2-fluorotetrahydro-1H-pyrrolizin-7a(5H)-yl)methoxy)-5,6-dihydro-4H-[1,4]oxazepino[5,6,7-de]quinazolin-9-yl)-7-fluorobenzo[b]thiophene-3-carbonitrile], the IC50 on K-Ras G12D is below 100 nM; with A549 cells, below 5000 nM; on K-Ras G12S, below 100 nM; on K-Ras G12V, below 100 nM; at K-Ras WT, below 100 nM.
On to `N#Cc1c(N)sc2c(F)ccc(-c3c(Cl)c4c5c(nc(OC[C@@]67CCCN6C[C@H](F)C7)nc5c3F)N(C3CC35CCN(C=O)C5)CCO4)c12` (stereo partly drawn) [Compound 1091, 2-amino-4-(8-chloro-10-fluoro-2-(((2R,7aS)-2-fluorotetrahydro-1H-pyrrolizin-7a(5H)-yl)methoxy)-4-(5-formyl-5-azaspiro[2.4]heptan-1-yl)-5,6-dihydro-4H-[1,4]oxazepino[5,6,7-de]quinazolin-9-yl)-7-fluorobenzo[b]thiophene-3-carbonitrile], for which the IC50 was below 100 nM at K-Ras G12D; below 5000 nM in the experiment on A549 cells; below 100 nM at K-Ras G12S; below 100 nM at K-Ras G12V; below 100 nM on K-Ras WT.
`N#Cc1c(N)sc2c(F)ccc(-c3c(Cl)c4c5c(nc(OC[C@@]67CCCN6C[C@H](F)C7)nc5c3F)N(C3COC5(CNC5)C3)CCO4)c12` (stereo partly drawn) [Compound 1093, 2-amino-4-(8-chloro-10-fluoro-2-(((2R,7aS)-2-fluorotetrahydro-1H-pyrrolizin-7a(5H)-yl)methoxy)-4-(5-oxa-2-azaspiro[3.4]octan-7-yl)-5,6-dihydro-4H-[1,4]oxazepino[5,6,7-de]quinazolin-9-yl)-7-fluorobenzo[b]thiophene-3-carbonitrile]: the IC50 on K-Ras G12D is below 100 nM; in the experiment on A549 cells it was below 5000 nM; on K-Ras G12S, below 100 nM; at K-Ras G12V it was below 100 nM; at K-Ras WT, below 100 nM.
With `N#Cc1c(N)sc2c(F)ccc(-c3c(Cl)c4c5c(nc(OC[C@@]67CCCN6C[C@H](F)C7)nc5c3F)N(C3CC5(CCNC5)C3)CCO4)c12` (stereo partly drawn) [Compound 1112, 2-amino-4-(8-chloro-10-fluoro-2-(((2R,7aS)-2-fluorotetrahydro-1H-pyrrolizin-7a(5H)-yl)methoxy)-4-(6-azaspiro[3.4]octan-2-yl)-5,6-dihydro-4H-[1,4]oxazepino[5,6,7-de]quinazolin-9-yl)-7-fluorobenzo[b]thiophene-3-carbonitrile], the IC50 on K-Ras G12D is below 100 nM; with A549 cells, below 5000 nM; at K-Ras G12S, below 100 nM; at K-Ras G12V, below 100 nM; on K-Ras WT, below 100 nM.
On to `CN1c2nc(OC[C@@]34CCCN3C[C@H](F)C4)nc3c(F)c(-c4ccc(F)c5sc(N)c(C#N)c45)c(Cl)c(c23)OCCC1CO` (stereo partly drawn) [Compound 1217, 2-amino-4-(9-chloro-11-fluoro-2-(((2R,7aS)-2-fluorotetrahydro-1H-pyrrolizin-7a(5H)-yl)methoxy)-5-(hydroxymethyl)-4-methyl-4,5,6,7-tetrahydro-[1,5]oxazocino[4,3,2-de]quinazolin-10-yl)-7-fluorobenzo[b]thiophene-3-carbonitrile], for which the IC50 on K-Ras G12D is below 100 nM; on K-Ras G12S, below 100 nM; at K-Ras G12V, below 100 nM; in the experiment with SW620 cells it was below 5000 nM; at K-Ras WT, below 100 nM.
